Activity calls are given as the source filed them. The calls are words filed in the database; no cut-off is given here.

Activity, inhibition and survival data for seven molecules are collected here from ChEMBL document CHEMBL5352404, “Synthesis and evaluation of novel furanones as biofilm inhibitors in opportunistic human pathogens” (Eur J Med Chem, 2022).

The test system of data set [1] is Salmonella typhimurium. Briefly: Antibiofilm activity against Salmonella enterica subsp. enterica serovar Typhimurium assessed as reduction in biofilm formation at 50 uM incubated for 24 hrs by crystal violet staining based assay relative to control. The arrangement: scale not given: the % may be the effect or the level left. Format: functional.
Data set [2] deals with Salmonella typhimurium. In words: Antibacterial activity against Salmonella enterica subsp. enterica serovar Typhimurium assessed as bacterial growth inhibition at 50 uM incubated for 20 hrs by broth microdilution method. Format: functional, organism-based.
Data set [3] deals with Stenotrophomonas maltophilia. In words: Antibacterial activity against Stenotrophomonas maltophilia K279a assessed as bacterial growth inhibition at 50 uM incubated for 20 hrs by broth microdilution method. Format: functional, organism-based.
For data set [4], the system named is Stenotrophomonas maltophilia. Briefly: Inhibition of biofilm formation in Stenotrophomonas maltophilia K279a at 50 uM incubated for 24 hrs by crystal violet staining based analysis. Format: functional, organism-based.
For data set [5], the system named is Pseudomonas aeruginosa. In words: Antibacterial activity against eYFP labeled Pseudomonas aeruginosa PAO1 assessed as inhibition of bacterial growth at 50 uM incubated for 20 hrs by broth microdilution method relative to control. More on the design: scale not given: the % may be the effect or the level left. Format: functional.
Data set [6] deals with Pseudomonas aeruginosa. Briefly: Antibacterial activity against Pseudomonas aeruginosa PAR7244 assessed as bacterial growth inhibition at 50 uM incubated for 20 hrs by broth microdilution method. Type of data set: functional, organism-based.
For data set [7], the system named is Candida albicans. Briefly: Inhibition of biofilm formation in Candida albicans M2396 at 50 uM incubated for 24 hrs by crystal violet staining based analysis. Type of data set: functional, organism-based.
Data set [8] relates to Candida albicans. Briefly: Antibiofilm activity against Candida albicans M2396 at 50 uM incubated for 24 hrs by confocal laser-scanning microscopy. Format: functional, organism-based.
The test system of data set [9] is Candida albicans. In words: Antibiofilm activity against Candida albicans M2396/Pseudomonas aeruginosa PA01 dual-species at 50 uM incubated for 24 hrs by confocal laser-scanning microscopy. Format: functional, organism-based.
Data set [10] relates to Escherichia coli. In words: Antibiofilm activity against Escherichia coli ATCC 9637 assessed as reduction in biofilm formation at 50 uM incubated for 24 hrs by crystal violet staining based assay. Type of data set: functional, organism-based.
Data set [11] concerns Candida albicans. Briefly: Inhibition of biofilm formation in developmental phase of Candida albicans M2396 at 50 uM incubated for 24 hrs by crystal violet staining based analysis. Format: functional, organism-based.
The subject of data set [12] is Candida albicans. Briefly: Antifungal activity against RFP-expressing Candida albicans M2396 assessed as fungal growth inhibition at 50 uM incubated for 20 hrs by microplate reader analysis. Type of data set: functional, organism-based.
Data set [13] deals with Escherichia coli. In words: Antibiofilm activity against Escherichia coli ATCC 9637 assessed as reduction in biofilm formation at 50 uM incubated for 24 hrs by crystal violet staining based assay relative to control. Type of data set: functional. The arrangement: scale not given: the % may be the effect or the level left.
For the next data set, the system named is Staphylococcus aureus. In words: Inhibition of biofilm formation in Staphylococcus aureus Newman ATCC 25904 at 50 uM incubated for 24 hrs by crystal violet staining based assay relative to control. Format: functional.
Data set [14] concerns Escherichia coli. In words: Antibacterial activity against Escherichia coli ATCC 9637 assessed as bacterial growth inhibition at 50 uM incubated for 20 hrs by broth microdilution method relative to control. Type of data set: functional. The arrangement: scale not given: the % may be the effect or the level left.
In data set [15] the test system is Pseudomonas aeruginosa. In words: Inhibition of biofilm formation in eYFP labeled Pseudomonas aeruginosa PAO1 at 50 uM incubated for 24 hrs by crystal violet staining based analysis relative to control. Type of data set: functional.
Data set [16] relates to Candida albicans. Briefly: Inhibition of biofilm formation in RFP-expressing Candida albicans M2396 at 50 uM incubated for 24 hrs by crystal violet staining based analysis relative to control. Format: functional.
Another data set concerns HK-2. Briefly: Cytotoxicity against human HK-2 cells assessed as reduction in cell survival at 50 uM incubated for 24 to 48 hrs by MTT assay. Format: toxicity, cell-based. The settings on record: hk-2, 50 µM, time 24-48 hrs.
Data set [17] is described as follows: Toxicity in Galleria mellonella larvae assessed as reduction in animal survival at 100 uM.
Data set [18] can be described thus: Toxicity in Galleria mellonella larvae assessed as signs of melanization at 100 uM.
For data set [19], the system named is Pseudomonas aeruginosa. Briefly: Antibiofilm activity against Pseudomonas aeruginosa PAR7244 assessed as reduction in biofilm formation at 50 uM incubated for 24 hrs by crystal violet staining based analysis relative to control. Format: functional. The arrangement: scale not given: the % may be the effect or the level left.
Data set [20] concerns Candida albicans. In words: Inhibition of biofilm formation in developmental phase of Candida albicans M2396 at 50 uM incubated for 24 hrs by crystal violet staining based analysis relative to control. Type of data set: functional.
In data set [21] the test system is Pseudomonas aeruginosa. In words: Antibacterial activity against Pseudomonas aeruginosa PAR7244 infected in Galleria mellonella larvae assessed as increase in survival rate at 50 uM measured every 24 hrs (reference value: 48 %). Format: functional.
For data set [22], the system named is Pseudomonas aeruginosa. In words: Antibiofilm activity against Pseudomonas aeruginosa PAR7244 assessed as reduction in biofilm formation at 50 uM incubated for 24 hrs by crystal violet staining based analysis. Type of data set: functional, organism-based.
Data set [23] deals with Pseudomonas aeruginosa. Briefly: Antibiofilm activity against Pseudomonas aeruginosa PAO1 at 50 uM incubated for 24 hrs by confocal laser-scanning microscopy. Format: functional, organism-based.

As to `O=C1C=CC(=C(Br)Br)O1`, the Activity in the data set on Salmonella typhimurium [1] is 67%; in the data set on Pseudomonas aeruginosa [5] it was “<=5%”. Moreover, the outcome in the data set with Salmonella typhimurium [2], in the data set on Candida albicans [8], in the data set with Candida albicans [9] and with Candida albicans [12] was Active. For the same molecule, the outcome (in [3]; with Pseudomonas aeruginosa [6]; in the data set on Escherichia coli [10]) was inactive. Moreover, the inhibition result in data set [4] is “inactive”. Also, the inhibition result with Candida albicans [7] and with Candida albicans [11] was “Active” in each case.
In the case of `COc1ccc(C(=C2C=C(Br)C(=O)O2)c2ccc(OC)c(Br)c2)cc1Br`, the Activity in the data set on Escherichia coli [13] is given as 15%; in the data set with Pseudomonas aeruginosa [5], “<=5%”. In addition, the outcome (in data set [3]; with Pseudomonas aeruginosa [6]) was inactive. In addition, in data set [4], the inhibition result was “inactive”.
The molecule `COc1ccc(C#CC(C#Cc2ccc(OC)cc2)=C2C=CC(=O)O2)cc1` registered an inhibition at 50 µM in the data set with Staphylococcus aureus of 36%. In addition, the Activity is 31% in the data set on Escherichia coli [13], 8% with Escherichia coli [14] and “<=5%” in the data set on Pseudomonas aeruginosa [5]. Further, the outcome (in [3]; in the data set on Pseudomonas aeruginosa [6]) was inactive. Further, in data set [4], the inhibition result is “inactive”.
With `CC1=CC(=O)OC1=C(Br)Br`, the outcome (in data set [3]; in the data set on Pseudomonas aeruginosa [6]) was inactive. For the same molecule, in data set [4], the inhibition entry is “inactive”. Moreover, the inhibition at 50 µM in the data set on Pseudomonas aeruginosa [15] was 70%; in the data set with Candida albicans [16], 38%. The Activity in the data set on Pseudomonas aeruginosa [5] was 11%; in the data set with HK-2, “Toxic”; in [17], “Non-Toxic”; in data set [18], “Non-Toxic”; in the data set with Pseudomonas aeruginosa [19] it was 44%.
Take `COc1cccc(C(=C2C=CC(=O)O2)c2cccc(OC)c2)c1`: the inhibition at 50 µM is 30% in the data set with Staphylococcus aureus, 44% in the data set with Pseudomonas aeruginosa [15], 53% in the data set on Candida albicans [16] and 71% with Candida albicans [20]. The outcome (in [3]; in the data set with Pseudomonas aeruginosa [6]) was inactive. For the same molecule, the inhibition entry in data set [4] was “inactive”. The Activity entry in the data set with Pseudomonas aeruginosa [5] was “<=5%”; in the data set with HK-2, “Non-Toxic”; in data set [17], “Non-Toxic”; in data set [18], “Non-Toxic”. Also, the survival at 50 µM in the data set on Pseudomonas aeruginosa [21] amounted to 72%.
In the case of `O=C1C=C/C(=C/Br)O1`, the result (in data set [3]; with Pseudomonas aeruginosa [6]; in the data set on Escherichia coli [10]; with Pseudomonas aeruginosa [22]) was inactive. Moreover, the inhibition entry (in data set [4]; in the data set with Candida albicans [11]) was “inactive” each time. This molecule also yielded an inhibition at 50 µM with Pseudomonas aeruginosa [15] of 75%. For the same molecule, the Activity result with Pseudomonas aeruginosa [5] is “<=5%”; in the data set with HK-2, “Toxic”; in data set [17], “Non-Toxic”; in data set [18], “Non-Toxic”. For the same molecule, the inhibition result with Candida albicans [7] was “Active”. Moreover, the outcome in the data set with Candida albicans [8], with Candida albicans [9] and in the data set on Candida albicans [12] was Active.
Take `O=C1C=C/C(=C(\Cl)I)O1`: the Activity in the data set on Salmonella typhimurium [1] is reported as 59%; in the data set on Escherichia coli [14] it was 28%; in the data set on Pseudomonas aeruginosa [5] it was “<=5%”. Besides, the outcome in the data set with Salmonella typhimurium [2], in the data set with Candida albicans [8], in the data set with Pseudomonas aeruginosa [23] and in the data set with Candida albicans [9] was Active. Besides, the outcome (in data set [3]; with Pseudomonas aeruginosa [6]) was inactive. The inhibition entry in data set [4] was “inactive”. Moreover, the inhibition at 50 µM with Pseudomonas aeruginosa [15] was 51%; in the data set on Candida albicans [16], 92%; in the data set on Candida albicans [20], 52%.
